Measurements reported in patent US11472808B2, “Substituted pyrrolo[1,2-c]pyrimidines as hepatitis B antiviral agents” (Enanta Pharmaceuticals, Inc., priority 2019, dated 2022).

The compounds below were run on HBV (assay: HepAD38 anti-HBV assay: reduction of viral product accumulation (virion DNA qPCR, HBsAg/HBeAg ELISA)). Details: Hepatitis B virus, 120 h; HepAD38 cells; concentration reducing viral product accumulation by 50% relative to no drug controls; harvest five days after compound addition; read-out: HepAD38 EC50.
Format: cell-based
In short: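 Tetracycline-free HepAD38 cells treated 5 days with compound (1:200 DMSO dilution), or 8 days with media and compound refreshed on d2 and d5. Virion DNA quantified by qPCR; HBsAg or HBeAg by ELISA. EC50 is the concentration reducing viral product accumulation 50% versus no-drug controls.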

`O=C(N[C@H]1CC2=C(c3ccn(C(F)F)n3)[C@H](c3ccc(F)cc3Cl)N=C(c3nccs3)N2C1)N1CCC(O)CC1` [Example 208] and `O=C(N[C@H]1CC2=C(c3ccn(C(F)F)n3)[C@H](c3ccc(F)cc3Cl)N=C(c3nccs3)N2C1)N1CC[C@H](O)C1` [Example 224] cannot be ordered by EC50: < 0.1 µM for the first, < 0.1 µM for the second.

`O=C(N[C@H]1CC2=C(c3ccn(C(F)F)n3)[C@H](c3ccc(F)cc3Cl)N=C(c3nccs3)N2C1)N1CCCC1` [Example 209] and `O=C(N[C@H]1CC2=C(c3ccn(C(F)F)n3)[C@H](c3ccc(F)cc3Cl)N=C(c3nccs3)N2C1)N1CCC1` [Example 210] cannot be ordered by EC50: < 0.1 µM for the first, < 0.1 µM for the second.

`COC(=O)C1CCN(C(=O)N[C@H]2CC3=C(c4ccn(C(F)F)n4)[C@H](c4ccc(F)cc4Cl)N=C(c4nccs4)N3C2)CC1` [Example 211] and `O=C(O)C1CCN(C(=O)N[C@H]2CC3=C(c4ccn(C(F)F)n4)[C@H](c4ccc(F)cc4Cl)N=C(c4nccs4)N3C2)CC1` [Example 212] fall in the same range of EC50: 0.1 to 0.4 µM for the first, 0.1 to 0.4 µM for the second.

Compared with `O=C(N[C@H]1CC2=C(c3ccn(C(F)F)n3)[C@H](c3ccc(F)cc3Cl)N=C(c3nccs3)N2C1)N1CCC(CO)CC1` [Example 216], `O=C(N[C@H]1CC2=C(c3ccn(C(F)F)n3)[C@H](c3ccc(F)cc3Cl)N=C(c3nccs3)N2C1)N1CC[C@@H](O)C1` [Example 225] is lower in EC50: 0.1 to 0.4 µM for the first, < 0.1 µM for the second. The second is the more potent here.

`O=C(NCc1ccccn1)N[C@H]1CC2=C(c3ccn(C(F)F)n3)[C@H](c3ccc(F)cc3Cl)N=C(c3nccs3)N2C1` [Example 217] and `O=C(NCC(O)c1ccccn1)N[C@H]1CC2=C(c3ccn(C(F)F)n3)[C@H](c3ccc(F)cc3Cl)N=C(c3nccs3)N2C1` (stereo partly drawn) [Example 218] cannot be ordered by EC50: > 0.4 µM for the first, > 0.4 µM for the second.

`O=C(N[C@H]1CC2=C(c3ccn(C(F)F)n3)[C@H](c3ccc(F)cc3Cl)N=C(c3nccs3)N2C1)N1CCS(=O)(=O)CC1` [Example 219] and `CS(=O)(=O)N1CCN(C(=O)N[C@H]2CC3=C(c4ccn(C(F)F)n4)[C@H](c4ccc(F)cc4Cl)N=C(c4nccs4)N3C2)CC1` [Example 222] fall in the same range of EC50: 0.1 to 0.4 µM for the first, 0.1 to 0.4 µM for the second.

First: CC(C)(C)OC(=O)N1CCN(C(=O)N[C@H]2CC3=C(c4ccn(C(F)F)n4)[C@H](c4ccc(F)cc4Cl)N=C(c4nccs4)N3C2)CC1 [Example 220]
Second: COC(=O)N1CCN(C(=O)N[C@H]2CC3=C(c4ccn(C(F)F)n4)[C@H](c4ccc(F)cc4Cl)N=C(c4nccs4)N3C2)CC1 [Example 221]
The EC50 of the first is higher: > 0.4 µM for the first, 0.1 to 0.4 µM for the second. The second is the more potent here.

`O=C(N[C@H]1CC2=C(c3ccn(C(F)F)n3)[C@H](c3ccc(F)cc3Cl)N=C(c3nccs3)N2C1)N1CCC[C@@H](O)C1` [Example 223] and `O=C(N[C@H]1CC2=C(c3ccn(C(F)F)n3)[C@H](c3ccc(F)cc3Cl)N=C(c3nccs3)N2C1)N1CCC[C@H](O)C1` [Example 229] fall in the same range of EC50: 0.1 to 0.4 µM for the first, 0.1 to 0.4 µM for the second.

`O=C(N[C@H]1CC2=C(c3ccn(C(F)F)n3)[C@H](c3ccc(F)cc3Cl)N=C(c3nccs3)N2C1)N1C[C@@H](O)[C@@H](O)C1` [Example 226] and `O=C(N[C@H]1CC2=C(c3ccn(C(F)F)n3)[C@H](c3ccc(F)cc3Cl)N=C(c3nccs3)N2C1)N1C[C@H](O)[C@@H](O)C1` [Example 230] fall in the same range of EC50: 0.1 to 0.4 µM for the first, 0.1 to 0.4 µM for the second.

`O=C(N[C@H]1CC2=C(c3ccn(C(F)F)n3)[C@H](c3ccc(F)cc3Cl)N=C(c3nccs3)N2C1)c1cccnc1` [Example 227] and `O=C(N[C@H]1CC2=C(c3ccn(C(F)F)n3)[C@H](c3ccc(F)cc3Cl)N=C(c3nccs3)N2C1)c1ccncc1` [Example 231] cannot be ordered by EC50: < 0.1 µM for the first, < 0.1 µM for the second.

Compared with `O=C(N[C@H]1CC2=C(c3ccn(C(F)F)n3)[C@H](c3ccc(F)cc3Cl)N=C(c3nccs3)N2C1)N1CCN(S(=O)(=O)c2ccccc2)CC1` [Example 228], `O=C(N[C@H]1CC2=C(c3ccn(C(F)F)n3)[C@H](c3ccc(F)cc3Cl)N=C(c3nccs3)N2C1)N1CCC(O)(c2ccccc2)CC1` [Example 242] is lower in EC50: > 0.4 µM for the first, 0.1 to 0.4 µM for the second. The second is the more potent here.

`O=C(N[C@H]1CC2=C(c3ccn(C(F)F)n3)[C@H](c3ccc(F)cc3Cl)N=C(c3nccs3)N2C1)c1ncccn1` [Example 232] and `O=C(N[C@H]1CC2=C(c3ccn(C(F)F)n3)[C@H](c3ccc(F)cc3Cl)N=C(c3nccs3)N2C1)c1cnccn1` [Example 233] cannot be ordered by EC50: < 0.1 µM for the first, < 0.1 µM for the second.

`O=C(N[C@H]1CC2=C(c3ccn(C(F)F)n3)[C@H](c3ccc(F)cc3Cl)N=C(c3nccs3)N2C1)c1ncc[nH]1` [Example 234] and `O=C(N[C@H]1CC2=C(c3ccn(C(F)F)n3)[C@H](c3ccc(F)cc3Cl)N=C(c3nccs3)N2C1)C1CC1` [Example 236] cannot be ordered by EC50: < 0.1 µM for the first, < 0.1 µM for the second.

`O=C(N[C@H]1CC2=C(c3ccn(C(F)F)n3)[C@H](c3ccc(F)cc3Cl)N=C(c3nccs3)N2C1)C1CCC1` [Example 237] and `O=C(N[C@H]1CC2=C(c3ccn(C(F)F)n3)[C@H](c3ccc(F)cc3Cl)N=C(c3nccs3)N2C1)C1CCCC1` [Example 238] fall in the same range of EC50: 0.1 to 0.4 µM for the first, 0.1 to 0.4 µM for the second.

Compared with `O=C(N[C@H]1CC2=C(c3ccn(C(F)F)n3)[C@H](c3ccc(F)cc3Cl)N=C(c3nccs3)N2C1)C1CCCCC1` [Example 239], `O=C(N[C@H]1CC2=C(c3ccn(C(F)F)n3)[C@H](c3ccc(F)cc3Cl)N=C(c3nccs3)N2C1)OC1CCCCC1` [Example 251] is lower in EC50: 0.1 to 0.4 µM for the first, < 0.1 µM for the second.

Compared with `O=S(=O)(N[C@H]1CC2=C(c3ccn(C(F)F)n3)[C@H](c3ccc(F)cc3Cl)N=C(c3nccs3)N2C1)C1CCCCC1` [Example 240], `O=C(N[C@H]1CC2=C(c3ccn(C(F)F)n3)[C@H](c3ccc(F)cc3Cl)N=C(c3nccs3)N2C1)OC1CCCC1` [Example 252] is higher in EC50: < 0.1 µM for the first, > 0.4 µM for the second. The first is the more potent here.

`O=C(N[C@H]1CC2=C(c3ccn(C(F)F)n3)[C@H](c3ccc(F)cc3Cl)N=C(c3nccs3)N2C1)N1CCC(O)(CO)CC1` [Example 241] and `O=C(N[C@H]1CC2=C(c3ccn(C(F)F)n3)[C@H](c3ccc(F)cc3Cl)N=C(c3nccs3)N2C1)N1CCC(O)(c2nccs2)CC1` [Example 244] fall in the same range of EC50: 0.1 to 0.4 µM for the first, 0.1 to 0.4 µM for the second.

`O=C(N[C@H]1CC2=C(c3ccn(C(F)F)n3)[C@H](c3ccc(F)cc3Cl)N=C(c3nccs3)N2C1)N1CCC(O)(c2ccccn2)CC1` [Example 243] and `O=C(N[C@H]1CC2=C(c3ccn(C(F)F)n3)[C@H](c3ccc(F)cc3Cl)N=C(c3nccs3)N2C1)N1CCC(O)(c2ncco2)CC1` [Example 245] fall in the same range of EC50: 0.1 to 0.4 µM for the first, 0.1 to 0.4 µM for the second.

Compared with `O=C(N[C@H]1CC2=C(c3ccn(C(F)F)n3)[C@H](c3ccc(F)cc3Cl)N=C(c3nccs3)N2C1)N1CCC(O)(c2ncc(C3CC3)s2)CC1` [Example 246], `O=C(N[C@H]1CC2=C(c3ccn(C(F)F)n3)[C@H](c3ccc(F)cc3Cl)N=C(c3nccs3)N2C1)N1CCC(O)(c2ncc[nH]2)CC1` [Example 247] is higher in EC50: 0.1 to 0.4 µM for the first, > 0.4 µM for the second. The first is the more potent here.

First: O=C(N[C@H]1CC2=C(c3ccn(C(F)F)n3)[C@H](c3ccc(F)cc3Cl)N=C(c3nccs3)N2C1)c1cccc(C2CC2)n1 [Example 248]
Second: O=C(N[C@H]1CC2=C(c3ccn(C(F)F)n3)[C@H](c3ccc(F)cc3Cl)N=C(c3nccs3)N2C1)OC1CCC1 [Example 253]
The EC50 of the first is higher: > 0.4 µM for the first, < 0.1 µM for the second. The second is the more potent here.

First: O=C(N[C@H]1CC2=C(c3ccn(C(F)F)n3)[C@H](c3ccc(F)cc3Cl)N=C(c3nccs3)N2C1)C1CCC(O)CC1 (stereo partly drawn) [Example 249]
Second: O=C(N[C@H]1CC2=C(c3ccn(C(F)F)n3)[C@H](c3ccc(F)cc3Cl)N=C(c3nccs3)N2C1)O[C@H]1CC[C@H](O)CC1 [Example 254]
The EC50 of the first is higher: 0.1 to 0.4 µM for the first, < 0.1 µM for the second. The second is the more potent here.

`O=C(N[C@H]1CC2=C(c3ccn(C(F)F)n3)[C@H](c3ccc(F)cc3Cl)N=C(c3nccs3)N2C1)C1CC(O)C1` (stereo partly drawn) [Example 250] and `O=C(N[C@H]1CC2=C(c3ccn(C(F)F)n3)[C@H](c3ccc(F)cc3Cl)N=C(c3nccs3)N2C1)O[C@H]1C[C@H](O)C1` [Example 255] fall in the same range of EC50: 0.1 to 0.4 µM for the first, 0.1 to 0.4 µM for the second.

`O=S(=O)(N[C@H]1CC2=C(c3ccn(C(F)F)n3)[C@H](c3ccc(F)cc3Cl)N=C(c3nccs3)N2C1)N1CCC(O)(c2cnc(C3CC3)s2)CC1` [Example 262] and `O=S(=O)(N[C@H]1CC2=C(c3ccn(C(F)F)n3)[C@H](c3ccc(F)cc3Cl)N=C(c3nccs3)N2C1)N1CCC(F)(F)CC1` [Example 277] cannot be ordered by EC50: < 0.1 µM for the first, < 0.1 µM for the second.

Compared with `O=C(N[C@H]1CC2=C(c3ccn(C(F)F)n3)[C@H](c3ccc(F)cc3Cl)N=C(c3nccs3)N2C1)c1ncc(-c2ccccn2)s1` [Example 263], `O=S(=O)(N[C@H]1CC2=C(c3ccn(C(F)F)n3)[C@H](c3ccc(F)cc3Cl)N=C(c3nccs3)N2C1)N1CCCC1c1ccccn1` (stereo partly drawn) [Example 288] is lower in EC50: 0.1 to 0.4 µM for the first, < 0.1 µM for the second.

`C#CC1(O)CCN(S(=O)(=O)N[C@H]2CC3=C(c4ccn(C(F)F)n4)[C@H](c4ccc(F)cc4Cl)N=C(c4cccs4)N3C2)CC1` [Example 265] and `O=S(=O)(N[C@H]1CC2=C(c3ccn(C(F)F)n3)[C@H](c3ccc(F)cc3Cl)N=C(c3nccs3)N2C1)N1CCC2(CC2)C1` [Example 286] cannot be ordered by EC50: < 0.1 µM for the first, < 0.1 µM for the second.

`COCCN(C)S(=O)(=O)N(C)[C@H]1CC2=C(c3ccn(C(F)F)n3)[C@H](c3ccc(F)cc3Cl)N=C(c3nccs3)N2C1` [Example 268] and `CC(=O)OCCCCS(=O)(=O)N[C@H]1CC2=C(c3ccn(C(F)F)n3)[C@H](c3ccc(F)cc3Cl)N=C(c3nccs3)N2C1` [Example 279] cannot be ordered by EC50: < 0.1 µM for the first, < 0.1 µM for the second.

`O=S(=O)(N[C@H]1CC2=C(c3ccn(C(F)F)n3)[C@H](c3ccc(F)cc3Cl)N=C(c3nccs3)N2C1)N1CC[C@H](F)C1` [Example 272] and `O=S(=O)(N[C@H]1CC2=C(c3ccn(C(F)F)n3)[C@H](c3ccc(F)cc3Cl)N=C(c3nccs3)N2C1)N1CCC[C@H]1C(F)(F)F` [Example 281] cannot be ordered by EC50: < 0.1 µM for the first, < 0.1 µM for the second.

`O=S(=O)(N[C@H]1CC2=C(c3ccn(C(F)F)n3)[C@H](c3ccc(F)cc3Cl)N=C(c3nccs3)N2C1)N1CCCC(F)(F)C1` [Example 278] and `CC(C)(O)[C@H]1CCCN1S(=O)(=O)N[C@H]1CC2=C(c3ccn(C(F)F)n3)[C@H](c3ccc(F)cc3Cl)N=C(c3nccs3)N2C1` [Example 284] cannot be ordered by EC50: < 0.1 µM for the first, < 0.1 µM for the second.

With `O=S(=O)(N[C@H]1CC2=C(c3ccn(C(F)F)n3)[C@H](c3ccc(F)cc3Cl)N=C(c3nccs3)N2C1)N1CCCC1c1cccnc1` (stereo partly drawn) [Example 283] the EC50 was 0.1 to 0.4 µM.
